Series [1] concerns the target T1, type α4β2 central nicotinic receptors (Rattus norvegicus, UniProt P09483+P12390).
T1 construct: from tissue; host or cells: rat brain membranes
Nature of the series: Displacement of binding of [3H]-cytisine on type α4β2 nicotinic receptors of rat brain. Here is the method:
This study, carried out according to the technique described in Molec. Pharmacol., 1990, 39; 9-12, is aimed at determining the affinity of compounds of the present invention for type α4β2 central nicotinic receptors.
Membranes (250 μg/ml) of rat brain are incubated (2 hours, 20° C.) in the presence of a series of concentrations (0.01-10 μM) of each compound of the present invention (diluted starting from a 10 mM stock solution in DMSO) and [^3H]-cytisine (S.A.: 1184 GBq/mmol: 2 nM) in phosphate buffer (NaH2PO4 20 mM, pH 7.4); final volume: 250 μl. The non-specific binding is determined by incubating membranes in the presence of 10 μM of (−)nicotine. The affinity of the compounds of the present invention for type α4β2 central nicotinic receptors is characterised by determination of the Ki.

The test system of series [2] is social recognition (memorisation). Nature of the series: Social recognition in the Wistar rat. Type of series: in vivo. The conditions noted are these: 3 mg/kg IP, 2 hours after administration. The text has this: Initially described in 1982 (J. Comp. Physiol., 1982, 96, 1000-1006), the social recognition test has subsequently been proposed by various authors (Psychopharmacology, 1987, 91, 363-368; Psychopharmacology, 1989, 97, 262-268) for studying the mnemocognitive effects of new compounds. The test is based on the natural expression of the olfactory memory of the rat and its natural tendency to forget and allows evaluation of memorisation, by recognition of a young congeneric animal, by an adult rat. A young rat (21 days), taken at random, is placed for 5 minutes in the cage housing an adult rat. With the aid of a video device, the experimenter observes the social recognition behaviour of the adult rat and measures its overall duration. The young rat is then removed from the adult rat's cage and is placed in its own cage until the second introduction. The adult rat is given the compound under test by the intraperitoneal route and, after 2 hours, is again brought into the presence (5 minutes) of the young rat. The social recognition behaviour is then observed again and its duration measured. The assessment criterion is the difference (T2−T1), expressed in seconds, between the “recognition” times of the 2 encounters.

Series [3] deals with release of acetylcholine in the prefrontal cortex. Description: In vivo measurement of the release of acetylcholine by intra-cortical microdialysis in the conscious Wistar rat. Also noted: dose or concentration left out as unconfirmed. The conditions noted are these: one hour after administration. The method, then:
The systemic administration of nicotine and nicotinic agonists causes an increase, in vivo, of acetylcholine in various regions of the brain (Neurochem. Res., 1996, 21, 1181-1186; Eur. J. Pharmacol., 1998, 351, 181-188; Br. J. Pharmacol., 1999, 127, 1486-1494). A microdialysis probe is implanted in the median prefrontal cortex of male Wistar rats. Six or seven days after they have been implanted, the probes are perfused with Ringer's solution (NaCl 147 mM, KCl 2.7 mM, CaCl2 1.2 mM, MgCl2 1 mM, neostigmine 20 nM) at a flow rate of 1 μl/min, the animal being free to move. After 2 hours in the animal quarters, the product under test is administered by the intraperitoneal route. A group of control animals receives the solvent used for the product. The dialysates (30 μl) are then collected every 30 minutes for 4 hours in order to measure the cortical extra-synaptic concentrations of acetylcholine by means of HPLC with amperometric detection. The results are expressed in pg of acetylcholine/dialysate, and inter-group comparisons are carried out by means of variance analysis using 2 factors (treatment×time), with measurements being repeated over time.

The subject of series [4] is abdominal cramps caused by PBQ. Nature of the series: Abdominal contractions induced by phenyl-p-benzoquinone (PBQ) in the NMRI mouse. The series is classed as in vivo. Particulars: 10 mg/kg IP. Here is the method:
Intraperitoneal administration of an alcoholic solution of PBQ causes abdominal cramps in the mouse (Proc. Soc. Exp. Biol., 1957, 95, 729-731). The cramps are characterised by repeated contractions of the abdominal musculature, accompanied by extension of the hind limbs. Most analgesics antagonise these abdominal cramps (Brit. J. Pharmacol. Chem., 1968, 32, 295-310). At t=0 min., the animals are weighed and the compound being studied is administered by the IP route. A group of control animals is given the solvent used for the compound. At t=30 min., an alcoholic solution of PBQ (0.2%) is administered by the IP route in a volume of 0.25 ml/mouse. Immediately after administration of the PBQ, the animals are placed in cylinders of plexiglass (L=19.5 cm; I.D.=5 cm). From t=35 min. to t=45 min., the animals' reaction is observed and the experimenter notes the total number of abdominal cramps per animal. The results are expressed as the percentage inhibition of the number of abdominal cramps measured in the control animals, at the active dose of the compound studied.

Series [5] relates to object recognition (memorisation). Description: Object recognition in the Wistar rat. The series is classed as in vivo. Particulars: 0.3 mg/kg PO, 2nd session 24 hours later. From the text: The object recognition test in the Wistar rat (Behav. Brain Res., 1988, 31, 47-59) is based on the spontaneous exploratory activity of the animal and has the characteristics of episodic memory in humans. Sensitive to ageing (Eur. J. Pharmacol., 1997, 325, 173-180), as well as to cholinergic dysfunctions (Pharm. Biochem. Behav., 1996, 5(2), 277-283), this memory test is based on the differential exploration of 2 objects of fairly similar size, one familiar and the other new. Before the test, the animals are accustomed to the environment (enclosure without object). During a 1st session, the rats are placed (for 3 minutes) in an enclosure containing 2 identical objects. The duration of exploration of each object is measured. During the second session (3 minutes), 24 hours later, 1 of the 2 objects is replaced by a new object. The duration of exploration of each object is measured. The assessment criterion is the difference Delta, expressed in seconds, between the exploration times of the new object and the familiar object during the 2nd session.

Series [6] deals with type α7 central nicotinic receptors (Rattus norvegicus, UniProt Q05941). Description: biochemical. Type of series: binding.

Counter-ions that a name gives are not always drawn. Like-named read-outs stand apart in the source and are kept apart here.

T1 sequence (P09483 31-630): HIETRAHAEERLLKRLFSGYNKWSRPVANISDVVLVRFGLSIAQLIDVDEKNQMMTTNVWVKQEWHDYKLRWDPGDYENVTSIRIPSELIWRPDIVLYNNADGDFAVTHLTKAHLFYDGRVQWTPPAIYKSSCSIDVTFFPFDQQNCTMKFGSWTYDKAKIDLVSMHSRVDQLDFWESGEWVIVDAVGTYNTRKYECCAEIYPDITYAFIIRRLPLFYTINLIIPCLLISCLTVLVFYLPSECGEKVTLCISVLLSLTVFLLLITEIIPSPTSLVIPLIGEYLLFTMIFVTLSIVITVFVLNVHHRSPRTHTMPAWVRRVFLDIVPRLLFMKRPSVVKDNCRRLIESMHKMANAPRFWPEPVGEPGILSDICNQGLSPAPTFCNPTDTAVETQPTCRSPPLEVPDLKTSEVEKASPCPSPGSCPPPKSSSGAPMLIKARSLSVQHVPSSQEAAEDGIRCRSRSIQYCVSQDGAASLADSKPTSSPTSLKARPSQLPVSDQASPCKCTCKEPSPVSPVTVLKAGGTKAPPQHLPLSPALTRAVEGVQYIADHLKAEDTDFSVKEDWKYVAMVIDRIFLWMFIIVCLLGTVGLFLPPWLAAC
T1 sequence (P12390 25-500): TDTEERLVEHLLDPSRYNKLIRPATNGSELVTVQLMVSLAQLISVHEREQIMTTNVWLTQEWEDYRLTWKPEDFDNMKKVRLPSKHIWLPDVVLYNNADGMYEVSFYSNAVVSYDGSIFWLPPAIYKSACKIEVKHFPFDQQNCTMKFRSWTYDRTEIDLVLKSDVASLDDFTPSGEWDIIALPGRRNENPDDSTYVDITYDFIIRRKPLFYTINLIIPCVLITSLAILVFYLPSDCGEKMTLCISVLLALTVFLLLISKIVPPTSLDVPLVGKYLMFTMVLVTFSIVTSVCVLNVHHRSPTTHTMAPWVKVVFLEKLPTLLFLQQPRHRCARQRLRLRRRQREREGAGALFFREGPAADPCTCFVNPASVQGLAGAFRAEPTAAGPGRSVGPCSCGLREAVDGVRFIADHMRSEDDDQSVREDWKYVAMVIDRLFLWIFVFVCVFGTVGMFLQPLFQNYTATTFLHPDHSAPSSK
type α7 central nicotinic receptors, sequence (Q05941 23-502): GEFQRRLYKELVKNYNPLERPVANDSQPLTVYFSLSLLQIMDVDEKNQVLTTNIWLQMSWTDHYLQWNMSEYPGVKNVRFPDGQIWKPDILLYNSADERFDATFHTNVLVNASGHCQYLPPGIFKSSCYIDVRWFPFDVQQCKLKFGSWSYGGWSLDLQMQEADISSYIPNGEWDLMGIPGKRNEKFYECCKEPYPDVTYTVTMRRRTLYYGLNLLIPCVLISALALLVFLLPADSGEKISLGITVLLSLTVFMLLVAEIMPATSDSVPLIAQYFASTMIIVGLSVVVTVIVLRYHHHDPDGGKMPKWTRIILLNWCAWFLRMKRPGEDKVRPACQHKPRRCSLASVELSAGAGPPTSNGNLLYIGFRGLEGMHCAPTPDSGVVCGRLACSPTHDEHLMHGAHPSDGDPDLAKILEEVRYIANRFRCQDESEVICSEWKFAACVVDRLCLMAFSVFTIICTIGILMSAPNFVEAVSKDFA

In turn, `CNC1(CN(C)c2ccc(Br)nc2)CC1.O=C(O)/C=C/C(=O)O` had a melting point of 146 to 150 °C.
Same read-out and setting: the figure for `CNC1(CNc2ccc(C)nc2)CC1.Cl.Cl` is 230 to 232 °C; for `CNC1(CN(C)c2ccc(C)nc2)CC1.Cl.Cl` it is 112 to 115 °C.
`CN(C)C1(CNc2ccc(Cl)nc2)CC1.Cl.Cl`: the melting point is 158 to 160 °C.
Turning to `CN(CC1(N(C)C)CC1)c1ccc(Cl)nc1.Cl.Cl`, the melting point is 163 to 166 °C.
Same read-out and setting: to `CNC1(CN(Cc2ccccc2)c2ccc(Cl)nc2)CC1.Cl.Cl` belongs 156 to 157 °C; to `CN(C)C1(CN(Cc2ccccc2)c2ccc(Cl)nc2)CC1.Cl`, 190 to 192 °C; to `CN(C)C1(CNc2cccnc2)CC1.Cl.Cl`, 208 to 210 °C.
`CN(CC1(N)CC1)c1cccnc1.Cl.Cl` showed a melting point of 218 to 222 °C.
On the same count and under the same terms, the figure for `CN(CC1(N(C)C)CC1)c1cccnc1.Cl.Cl` is 198 to 201 °C; for `CNC1(CN(C)c2ccc(Cl)nc2)CC1` (as salt: hydrochloride) [Example 10, 6-Chloro-N-methyl-N-{[1-(methylamino)cyclopropyl)methylpyridin-3-aminedihydrochloride] it is 133 to 136 °C.
For the compound `CNC1(CNc2cccnc2)CC1.Cl.Cl` [Example 1, N-{[1-(Methylamino)cyclopropyl]methyl}pyridin-3-amine dihydrochloride], the melting point was 190 to 195 °C. The affinity in series [1] corresponds to a Ki of 34 nM. Moreover, the “difference (T2−T1) between recognition times” value in series [2] stood at 36 s. Moreover, the “increase in the release of acetylcholine in the prefrontal cortex” value in series [3] is reported as “+70%”. The “reduction of the number of abdominal cramps caused by PBQ” value (“reduction” below) in series [4] was −50%. Besides, the “difference Delta between exploration times of new and familiar object” value in series [5] is reported as 9 s.
`CNC1(CN(C)c2cccnc2)CC1.Cl.Cl` [Example 2, N-Methyl-N-{[1-(methylamino)cyclopropyl]methyl}pyridin-3-amine dihydrochloride] had a melting point of 180 to 184 °C. In series [6], this compound came in with a Ki of 8300 nM. The compound also had a Ki in series [1] of 15 nM. The “difference (T2−T1) between recognition times” value in series [2] is recorded as 29 s. The “increase in the release of acetylcholine in the prefrontal cortex” value in series [3] is reported as “+80%”. Moreover, in series [4], the “reduction” value is on record as −76%. In series [5], the “difference Delta between exploration times of new and familiar object” value is given as 4 s.
In the case of `Cl.Cl.NC1(CNc2cccnc2)CC1` [Example 4, N-[(1-Aminocyclopropyl)methyl]pyridin-3-amine dihydrochloride], the melting point fell in the range of 195 to 199 °C. Further, the “difference (T2−T1) between recognition times” value in series [2] worked out at 19 s.
Turning to `CNC1(CNc2ccc(Cl)nc2)CC1.Cl.Cl` [Example 9], the “reduction” value in series [4] is on record as −52%.
For the compound `CNC1(CN(C)c2ccc(Cl)nc2)CC1` [Example 10, 6-Chloro-N-methyl-N-{[1-(methylamino)cyclopropyl)methylpyridin-3-aminedihydrochloride], the Ki in series [1] ([3H]-cytisine, rat brain membranes, read-out: Ki, type α4β2 central nicotinic receptors) stood at 16 nM. Also, the “reduction” value in series [4] was −69%.

What is called melting point is the temperature, or range, at which the solid turns liquid. By Ki is commonly meant a dissociation constant, usually derived from enzyme kinetics or from competition with a known ligand.

The values above are taken from patent US7388022B2, “Polysubstituted 1,1-pyridylaminocyclopropanamine compounds” (priority 2005, dated 2008).
